biological target: T1, human TLR7 (Homo sapiens, UniProt Q9NYK1); assay: HEK293-Blue-hTLR-7 cells assay; assay type: cell-based; conditions: HEK293-Blue-hTLR7 cells, SEAP reporter, R848 stimulation, 20 hrs
T1 sequence (Q9NYK1 27-1049): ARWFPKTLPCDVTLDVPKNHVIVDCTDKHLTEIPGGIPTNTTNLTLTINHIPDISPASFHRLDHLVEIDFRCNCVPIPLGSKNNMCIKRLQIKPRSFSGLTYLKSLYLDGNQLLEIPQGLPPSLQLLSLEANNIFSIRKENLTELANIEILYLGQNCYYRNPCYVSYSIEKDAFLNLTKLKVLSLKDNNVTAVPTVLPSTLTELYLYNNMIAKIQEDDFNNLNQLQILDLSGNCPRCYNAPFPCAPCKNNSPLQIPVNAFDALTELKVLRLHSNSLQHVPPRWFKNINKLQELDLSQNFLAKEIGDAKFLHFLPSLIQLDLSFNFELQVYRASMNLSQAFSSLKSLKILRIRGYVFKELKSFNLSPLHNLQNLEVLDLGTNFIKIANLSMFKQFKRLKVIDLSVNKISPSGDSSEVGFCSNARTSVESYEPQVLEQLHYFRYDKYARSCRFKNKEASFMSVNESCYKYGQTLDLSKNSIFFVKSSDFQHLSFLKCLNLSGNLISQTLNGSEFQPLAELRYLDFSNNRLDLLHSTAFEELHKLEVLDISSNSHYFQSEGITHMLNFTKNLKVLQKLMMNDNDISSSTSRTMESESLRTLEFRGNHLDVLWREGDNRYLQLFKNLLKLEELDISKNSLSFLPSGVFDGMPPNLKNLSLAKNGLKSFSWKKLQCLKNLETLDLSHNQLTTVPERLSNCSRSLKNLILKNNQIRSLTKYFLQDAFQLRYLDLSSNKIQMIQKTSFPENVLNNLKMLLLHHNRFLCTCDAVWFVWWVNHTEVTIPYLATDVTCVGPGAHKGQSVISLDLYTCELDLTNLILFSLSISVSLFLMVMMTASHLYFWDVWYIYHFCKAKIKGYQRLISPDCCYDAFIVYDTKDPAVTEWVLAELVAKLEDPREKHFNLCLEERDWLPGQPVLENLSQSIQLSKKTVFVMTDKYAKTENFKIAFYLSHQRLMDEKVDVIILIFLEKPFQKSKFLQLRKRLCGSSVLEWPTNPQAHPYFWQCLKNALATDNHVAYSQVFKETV
Text: HEK293-Blue-hTLR-7 Cells Assay:
A stable HEK293-Blue-hTLR-7 cell line was purchased from InvivoGen (Cat. #: hkb-htlr7, San Diego, Calif., USA). These cells were originally designed for studying the stimulation of human TLR7 by monitoring the activation of NF-κB. A SEAP (secreted embryonic alkaline phosphatase) reporter gene was placed under the control of the IFN-β minimal promoter fused to five NF-κB and AP-1-binding sites. The SEAP was induced by activating NF-κB and AP-1 via stimulating HEK-Blue hTLR7 cells with TLR7 ligands. Therefore the reporter expression was declined by TLR7 antagonist under the stimulation of a ligand, such as R848 (Resiquimod), for incubation of 20 hrs. The cell culture supernatant SEAP reporter activity was determined using QUANTI-Blue™ kit (Cat. #: rep-qb1, Invivogen, San Diego, Ca, USA) at a wavelength of 640 nm, a detection medium that turns purple or blue in the presence of alkaline phosphatase.
HEK293-Blue-hTLR7 cells were incubated at a density of 250,000˜450,000 cells/mL in a volume of 170 μL in a 96-well plate in Dulbecco's Modified Eagle's medium (DMEM) containing 4.5 g/L glucose, 50 U/mL penicillin, […], […], 2 mM L-glutamine, 10% (v/v) heat-inactivated fetal bovine serum with addition of 20 sL test compound in a serial dilution in the presence of final DMSO at 1% and 10 μL of 20 uM R848 in above DMEM, perform incubation under 37° C. in a CO2 incubator for 20 hrs. Then 20 μL of the supernatant from each well was incubated with 180 sL Quanti-blue substrate solution at 37° C. for 2 hrs and the absorbance was read at 620-655 nm using a spectrophotometer. The signalling pathway that TLR7 activation leads to downstream NF-κB activation has been widely accepted, and therefore similar reporter assay was modified for evaluating TLR7 antagonist.

Row | Structure (SMILES) | IC50
1 | N#Cc1ccc(N2C[C@@H](C(F)(F)F)[C@H](C(=O)N[C@H]3CNC[C@H]3F)C2)c2cccnc12 [Example 47, Trans-1-(8-cyano-5-quinolyl)-N-[(3S,4R)-4-fluoropyrrolidin-3-yl]-4-(trifluoromethyl)pyrrolidine-3-carboxamide] | 124 nM
2 | C[C@H]1CN(c2ccc(Cl)c3ncccc23)C[C@@H]1C(=O)NC1CCN(C)CC1 [Example 50, (3R,4R)-1-(8-chloro-5-quinolyl)-4-methyl-N-(1-methyl-4-piperidyl)pyrrolidine-3-carboxamide] | 178 nM
3 | CN1CCCC(CNC(=O)C2CN(c3ccc(C#N)c4ncccc34)CC23CC3)C1 (centres unmarked) [Example 51, 5-(8-Cyano-5-quinolyl)-N-[(1-methyl-3-piperidyl)methyl]-5-azaspiro[2.4]heptane-7-carboxamide] | 201 nM
4 | C[C@@H]1CN(c2ccc(C#N)c3ncccc23)C[C@H]1C(=O)N[C@H]1CNC[C@H]1F [Example 56, Trans-1-(8-cyano-5-quinolyl)-N-[(3S,4R)-4-fluoropyrrolidin-3-yl]-4-methyl-pyrrolidine-3-carboxamide] | 282 nM
5 | C[C@H]1CN(c2ccc(C#N)c3nccnc23)C[C@@H]1C(=O)NC1CCN(C2CCNCC2)CC1 [Example 60, (3R,4R)-1-(8-cyanoquinoxalin-5-yl)-4-methyl-N-[1-(4-piperidyl)-4-piperidyl]pyrrolidine-3-carboxamide] | 492 nM

— US20210323977A1, “PYRROLIDINYL AMIDE COMPOUNDS FOR THE TREATMENT OF AUTOIMMUNE DISEASE” (Hoffmann-La Roche Inc., priority 2018, published 2021)
